Data reported in publication PMC10282898 (Organic & Biomolecular Chemistry, 2023).

Assays:
[1] = system: A3 enzymes; conditions: cited from earlier work
[2] = target: hCDA (Homo sapiens, UniProt P32320); assay: Quantitative evaluation of hCDA inhibitors; format: biochemical
hCDA, sequence (P32320 whole entry): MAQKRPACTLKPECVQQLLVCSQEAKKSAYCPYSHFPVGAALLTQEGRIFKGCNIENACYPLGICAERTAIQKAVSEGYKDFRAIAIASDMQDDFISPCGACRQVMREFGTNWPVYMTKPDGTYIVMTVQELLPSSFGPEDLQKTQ

Ki ([2]; hCDA 27 nM, dC substrate, pH 7.4, 25 °C, competitive inhibition assumed) | Km/Ki ([2]; hCDA, Km of dC over Ki of inhibitor) | Structure (SMILES) | inhibition of A3 enzymes by free nucleosides [1]
– | – | O=C1NC(O)CCN1[C@@H]1O[C@H](CO)[C@@H](O)[C@H]1O (stereo partly drawn) [THU, tetrahydrouridine] | did not inhibit
430 ± 80 nM | 512 | O=C1NCC=CCN1[C@H]1C[C@H](O)[C@@H](CO)O1 [dDiAzep, 8, 1,3-diazepin-2-one 2′-deoxyriboside] | –
